“And” between values parts separate entries of the source, which are not always exact repeats. Equal entries are not always repeated.
Tests used:
Details in all cases: in vivo
[1] = tested on: Erysiphe graminis f. sp. tritici
[2] = tested on: Puccinia recondita f. sp. tritici
Sphaerotheca fulginea = tested on: Sphaerotheca fulginea
Septoria nodorum = tested on: Septoria nodorum
Pyricularia oryzae = tested on: Pyricularia oryzae
Plasmopara viticola = tested on: Plasmopara viticola

Row | Compound | percent disease control, Wheat Powdery Mildew (WPM) [1] | percent disease control, Wheat Leaf Rust (WLR) [2] | percent disease control, Cucumber Powdery Mildew (CPM) (Sphaerotheca fulginea) | plant damage (necrosis / death of plant) in SNW test (Septoria nodorum) | plant damage (necrosis / death of plant) in RB test (Pyricularia oryzae) | percent disease control, Septoria on Wheat (SNW) (Septoria nodorum) | percent disease control, Grape Downy Mildew (GDM) (Plasmopara viticola) | percent disease control, Rice Blast (RB) (Pyricularia oryzae)
1 | O=C(Nc1c(Cl)c(Cl)c(Cl)c(Cl)c1Cl)c1sc(C(F)(F)F)nc1C(F)(F)F [Compound 2] | 80% and 75% and 50% | 100% and 99% and 90% |  |  |  |  |  | 
2 | O=C(Nc1cc(F)c(F)c(F)c1F)c1sc(C(F)(F)F)nc1C(F)(F)F [Compound 4] |  |  | 0% and 0/5% | —/5 | 50/5 |  |  | 
3 | O=C(Nc1c(Br)cc(OC(F)(F)F)cc1Br)c1sc(C(F)(F)F)nc1C(F)(F)F [Compound 5] | 95% and 80% | 100% and 95% |  |  |  | 80% and 75% | 0% | 95% and 90%
4 | O=C(Nc1c(Br)cc(Br)cc1Br)c1sc(C(F)(F)F)nc1C(F)(F)F [Compound 3] | 85% and 80% and 50% | 99% and 90% and 85% |  |  |  |  |  | 

Reference: patent publication US6372769B1 (priority 1999, dated 2002)
